Where no end group is shown, it is not given here.
What was measured:
[1] = system: Agrp-cre::hM3Dq-mCherry mice; assay: DREADD (hM3Dq/CNO)-stimulated feeding; assay type: in vivo, mouse
Experimental: For surgery, mice (8 to 12 weeks) were anesthetized with isoflurane (1 L/min O2 with 2% isoflurane). Following surgery, all mice received 0.03 mg/kg buprenorphine (Buprenex, Reckitt Benckiser, Slough, UK) and were allowed a minimum of 1 week to recover before treatment started. DIO mice received subcutaneous implants of an Alzet 2002 osmotic minipump (Durect, Cupertino, CA). All of the DIO mice experienced a small reduction in body weight following implantation of the minipump. For experiments using designer receptors exclusively activated by designer drugs (DREADDs), AgRP-cre mice received bilateral injections of AAV2-hSyn-DIO-hM3Dq-mCherry (UNC Vector Core, Chapel Hill, NC) ([35]) into the arcuate nucleus (3 × 23 nL per side), using the following coordinates relative to Bregma, according to Paxinos and Franklin ([36]): anterior, −1.5 mm; lateral, ±0.30 mm; and ventral, −6.2 mm. Subsequently, the DREADDs were activated by IP injection of the designer drug, clozapine N-oxide (CNO; Sigma-Aldrich, St. Louis, MO) at 1 mg/kg.

[2] = system: mice; assay: Normal nighttime feeding after SC injection; assay type: in vivo, mouse; details: serial dilution, food intake after 2 hours
Experimental: (§1) For acute experiments, mice were acclimated to handling for 2 weeks and housed singly with free access to food at least 4 days before experiments. Nighttime injections of NNC0165-1273 were given subcutaneously (SC) 30 minutes before start of “dark phase,” and food intake was measured 1, 2, 4, and 14 hours later. Daytime feeding experiments commenced 4 hours into the “light phase” [Zeitgeber time (ZT) 4]; injections of ghrelin (2 mg/kg, IP) and NNC0165-1273/PYY3-36 (various doses, SC) were given concomitantly, and food intake measured at 1, 2, 4, and 24 hours later.

[3] = system: NPY/AgRP neurons; assay: cFos immunohistochemistry in arcuate NPY/AgRP neurons; assay type: in vivo, mouse
Experimental: Mice were transcardially perfused with chilled 0.9% NaCl followed by 4% paraformaldehyde in 0.1M phosphate buffer (Sigma-Aldrich). Whole brains were postfixed overnight and then dehydrated in 30% sucrose solution. Brains were flash frozen on dry ice, and then 30 µm sections were collected using a freezing sledge microtome and transferred to 0.1M phosphate buffer.
For chromogenic visualization of cFos, free-floating sections were incubated sequentially in rabbit anit-cFos primary [1:1000; SC-52; Santa Cruz, Dallas, TX ([37])], biotinylated goat anit-rabbit secondary [1:500; BA-1000; Vector Laboratories, Cambridge, UK ([38])], and streptavidin-biotin-peroxidase complex (1:500; RPN1051; GE Healthcare, Chicago, IL). This was combined with fluorescence staining for GFP or mCherry reporters; this required coincubation of sections with chicken anit-GFP [1:1000; 13970; Abcam, Cambridge, UK ([39])] followed by donkey anit-chicken^ALEXA 488 [1:1000; 703-545-155, Jackson ImmunoResearch, West Grove, PA ([40])], or with rabbit anti-DsRed [1:1000, 632396, Clontech, CA ([41])] followed by donkey […]^ALEXA 594 [1:1000; 705-585-147; Jackson ImmunoResearch, ([42])]. Sections were mounted on slides before imaging on an Olympus BX51 upright microscope. Images were processed and analyzed using open-source FIJI software.

[4] = cited from earlier work
Description: (§2) PYY3-36 and ghrelin were purchased from Bachem (Bubendorf, Switzerland). NNC0165-1273 was identified from a series of modified PYY peptides and synthesized with the aim of increased selectivity for Y2 receptors vs the other Y receptors [peptide no. 29 in Østergaard et al. ([9])].

[5] = biological target: human Y1 receptor; details: ref [9] Østergaard et al., read-out: binding inhibitory constant (Ki), Y1 receptor; cited from earlier work
Description: as §2

[6] = biological target: human Y2 receptor; details: same binding assays for both peptides, ref [9] Østergaard et al., read-out: binding inhibitory constant (Ki), Y2 receptor; cited from earlier work
Description: as §2

[7] = biological target: human Y4 receptor; details: ref [9] Østergaard et al., read-out: binding inhibitory constant (Ki), Y4 receptor; cited from earlier work
Description: as §2

[8] = biological target: human Y5 receptor; details: ref [9] Østergaard et al., read-out: binding inhibitory constant (Ki), Y5 receptor; cited from earlier work
Description: as §2

[9] = system: mice; assay: Ghrelin-induced daytime feeding; assay type: in vivo, mouse; details: 2 mg/kg IP, light phase, fed mice
Experimental: as §1

[10] = system: arcuate NPY/AgRP neurons (Npy-hrGFP); assay: Current clamp patch electrophysiology in brain slices; assay type: cell-based, mouse; details: 50 nM bath application; results not shown
Experimental: Npy-hrGFP mice were euthanized by decapitation, and the brains rapidly removed and sliced on a vibratome (Campden Instruments, Loughborough, UK) in ice-cold oxygenated incubation artificial cerebrospinal fluid (aCSF) containing (mM): 95 NaCl, 1.8 KCl, 1.2 KH2PO4, 7 MgSO4, 26 NaHCO3, 0.5 CaCl2, 15 glucose, and 50 sucrose. Slices were perfused with room temperature recording aCSF containing (mM): 127 NaCl, 1.8 KCl, 1.2 KH2PO4, 1.3 MgSO4, 26 NaHCO3, 2.4 CaCl2, and 5 glucose. Npy-hrGFP neurons were visualized in 250-µm slices using an Olympus BX51 with inbuilt infrared video-enhanced differential interference contrast optics and GFP fluorescence optics. Neurons were patched using 7 to 10 MΩ pipettes containing (mM): 130 K-gluconate, 10 KCl, 2 MgCl2, 10 HEPES, 0.5 EGTA, 2 K2ATP, and 0.5 NaGTP. Data were recorded on an Axoclamp 2A amplifier in bridge mode (Molecular Devices, San Jose, CA) and a CED 1401 A/D data acquisition interface (CED, Cambridge, UK) to give current clamp data at 30 kHz sampling frequency. NNC0165-1273 (Novo Nordisk, Maaloev, Denmark) was diluted in aCSF to a concentration of 50 nM and applied to perfusion chamber through a gravity-driven system. Effects were sampled with no current manipulations. All applications were timed for 3 to 5 minutes and perfusion flow was maintained at standard 1 to 2 mL/min^−1.

C[N+]1([O-])CCN(C2=Nc3cc(Cl)ccc3Nc3ccccc32)CC1 [CNO, clozapine N-oxide]
food intake in Agrp-cre::hM3Dq-mCherry mice ([1]; single IP injection 1 mg/kg, vs saline): substantial increase in food intake | food intake in wild-type mice ([1]; wild-type mice, results not shown): do not respond

PYY3-36: truncated major circulating form of gut hormone peptide YY; purchased from Bachem
threshold dose needed to inhibit nighttime feeding [2]: 0.04 µmol/kg | ghrelin-induced activation (cFos) of NPY/Agrp neurons ([3]; pretreatment before ghrelin 2 mg/kg, perfused 90 minutes after ghrelin, Npy-hrGFP mice): blocked | half-life in pig plasma [4]: 3.33 h | Ki [5]: 40 nM | Ki [6]: 0.4 nM | Ki [7]: 13 nM | Ki [8]: 3.2 nM

ghrelin: orexigenic peptide purchased from Bachem, used to induce feeding and activate NPY/AgRP neurons (GSSFLSPEHQRVQQRKESKKPPAKLQPR; ends and bridges not checked; UniProt Q9UBU3 24-51, looked up)
food intake after ghrelin alone [9]: substantial increase in food intake | cFos expression in the arcuate nucleus, notably NPY-hrGFP neurons ([3]; ghrelin 2 mg/kg, 90 minutes after injection): substantial increase | resting membrane potential of NPY/AgRP neurons [10]: increase in the resting membrane potential
